According to PMC9762708 (Annals of Surgery, 2022):
Residues, ends and D or L forms follow the SMILES beside them.

Assays:
Test in all cases: MIC of phase IIb clinical isolates
Type in all cases: cell-based
Enterococcus faecalis = conditions: 25 strains
[1] = test system: Staphylococcus haemolyticus; conditions: 23 strains
Staphylococcus aureus = conditions: 320 strains
[2] = test system: Staphylococcus epidermidis; conditions: 126 strains
Acinetobacter baumannii = conditions: 31 strains
Escherichia coli = conditions: 22 strains
Klebsiella pneumoniae = conditions: 45 strains
Enterobacter cloacae = conditions: 63 strains
Pseudomonas aeruginosa = conditions: 74 strains

| SMILES | Strains Resistant to Control Antibiotics (Enterococcus faecalis) | Strains Resistant to Control Antibiotics [1] | Strains Resistant to Control Antibiotics (Staphylococcus aureus) | Strains Resistant to Control Antibiotics [2] | Strains Resistant to Control Antibiotics (Acinetobacter baumannii) | Strains Resistant to Control Antibiotics (Escherichia coli) | Strains Resistant to Control Antibiotics (Klebsiella pneumoniae) | Strains Resistant to Control Antibiotics (Enterobacter cloacae) | Strains Resistant to Control Antibiotics (Pseudomonas aeruginosa) | MIC50 (Escherichia coli) [µg/mL] | MIC90 (Escherichia coli) [µg/mL] | MIC50 (Enterococcus faecalis) [µg/mL] | MIC90 (Enterococcus faecalis) [µg/mL] | MIC50 [1] [µg/mL] | MIC90 [1] [µg/mL] | MIC90 (Pseudomonas aeruginosa) [µg/mL] | MIC50 [2] [µg/mL] | MIC90 [2] [µg/mL] |
| --- | --- | --- | --- | --- | --- | --- | --- | --- | --- | --- | --- | --- | --- | --- | --- | --- | --- | --- |
| CN[C@H](CC(C)C)C(=O)N[C@H]1C(=O)N[C@@H](CC(N)=O)C(=O)N[C@H]2C(=O)N[C@H]3C(=O)N[C@H](C(=O)N[C@H](C(=O)O)c4cc(O)cc(O)c4-c4cc3ccc4O)[C@H](O)c3ccc(c(Cl)c3)Oc3cc2cc(c3O[C@@H]2O[C@H](CO)[C@@H](O)[C@H](O)[C@H]2O[C@H]2C[C@](C)(N)[C@H](O)[C@H](C)O2)Oc2ccc(cc2Cl)[C@H]1O [Vancomycin, vancomycin] | 0 n (%) | 0 n (%) | 0 n (%) | 0 n (%) |  |  |  |  |  |  |  |  |  |  |  |  |  |  |
| CO/N=C(\C(=O)N[C@@H]1C(=O)N2C(C(=O)O)=C(CSc3nc(=O)c(=O)[nH]n3C)CS[C@H]12)c1csc(N)n1 [Ceftriaxone, ceftriaxone] | 25 (100) n (%) | No |  | No | 14 (45.2) n (%) | 13 (59.1) n (%) | 18 (40.0) n (%) | 8 n (%) | 74 (100) n (%) |  |  |  |  |  |  |  |  |  |
| CC[C@H](C)[C@H](NC(=O)[C@H](C)NC(=O)[C@H](CCCCN)NC(=O)[C@H](CC(C)C)NC(=O)[C@H](C)NC(=O)[C@@H](NC(=O)[C@H](Cc1c[nH]cn1)NC(=O)[C@H](CC(C)C)NC(=O)[C@@H](NC(=O)[C@@H](NC(=O)[C@H](CCCCN)NC(=O)[C@H](C)NC(=O)[C@H](C)NC(=O)[C@H](CO)NC(=O)[C@H](CCCCN)NC(=O)[C@H](Cc1ccccc1)NC(=O)[C@@H](NC(=O)[C@H](CCCCN)NC(=O)[C@H](CC(C)C)NC(=O)[C@H](Cc1ccccc1)NC(=O)[C@H](CO)NC(=O)[C@H](CCCCN)NC(=O)[C@H](Cc1c[nH]c2ccccc12)NC(=O)[C@H](CCCCN)NC(C)=O)[C@@H](C)O)[C@@H](C)O)C(C)C)[C@@H](C)O)C(=O)N[C@@H](CO)C(=O)N[C@@H](CO)C(N)=O [PL-5, Peceleganan] (Ac-KWKSFLKTFKSAAKTVLHTALKAISS-NH2; N-terminus and C-terminus assumed) |  |  |  |  |  |  |  |  |  | 8 | 16 | 64 | 128 | 2 | 8 | 8 | 4 | 4 |
| C[C@H]1COc2c(N3CCN(C)CC3)c(F)cc3c(=O)c(C(=O)O)cn1c23 [Levofloxacin, levofloxacin] | 2 n (%) | 14 (60.9) n (%) | 56 (17.5) n (%) | 41 (32.5) n (%) | 5 n (%) | 13 (59.1) n (%) | 14 (31.1) n (%) | 2 n (%) | 8 n (%) |  |  |  |  |  |  |  |  |  |
| C[C@@H](O)[C@H]1C(=O)N2C(C(=O)O)=C(SCCN=CN)C[C@H]12 [Imipenem, imipenem] |  |  |  |  | 15 (48.4) n (%) | 0 n (%) | 1 n (%) | 8 n (%) | 2 n (%) |  |  |  |  |  |  |  |  |  |
